Source: patent publication US20080220103A1, “METHOD FOR TREATING/CONTROLLING/KILLING FUNGI AND BACTERIA ON LIVING ANIMALS” (priority 2005, published 2008)
In brackets after ≈: the same amount, converted by molar mass. Where two headings read alike, the source gives them in different places.

Tests used:
S. aureus = test: MIC, CLSI M7-A7, Mueller-Hinton; type: cell-based, Staphylococcus aureus; conditions: for MIC Range / MIC50 / MIC90: S. aureus
Method: (§1) Minimum Inhibitory Concentration (MIC): Minimum inhibitory concentrations of synthetic and semisynthetic and natural products against dermatophytes were determined using a modification of the Clinical Laboratory Standards Institute (CLSI, formerly National Committee of Clinical Laboratory Standards, NCCLS) M38A standard method for dermatophytes, while MIC of these agents against Candida species were determined using the CLSI M27-A2 methodology. The method used to determine the MIC against bacteria was based on the CLSI document M7-A7.
For bacterial species, the medium used to evaluate the antibacterial activity of agents and essential oils was Mueller-Hinton (Oxoid Ltd., Basingstoke, Hampshire, England). Serial dilutions of miconazole, terbinafine, and tolnaftate were prepared in a range of 0.125-64 μg/ml and serial dilutions of tea tree oil were prepared in a range of 0.0078-4 μg/ml, while those for the rest of the essential oils were prepared in a range 0.031-16 μg/ml.

C. albicans = test: MIC, CLSI M27-A2; type: cell-based, Candida albicans
Method: as §1
(§2) The remaining essential oils were prepared in a dilution range of 0.03-16 μg/ml. For Candida the MIC was read at 24 hours and defined as the lowest concentration to inhibit 50% of fungal growth as compared to the growth control (Table 4).

All yeasts = test: MIC, CLSI M27-A2, pooled yeasts; type: cell-based, C. albicans, C. parapsilosis; conditions: n = 12
Method: as §1, §2
In the following Tables, MIC50 and MIC90 are defined as the minimal concentrations of a compound that can inhibit 50% and 90% of the tested organisms, respectively.

T. mentagrophytes [1] = test: Pre-treatment leather biopsy disc assay; type: cell-based, Trichophyton mentagrophytes
From the text: (§3) Based on the above experiments, our disc biopsy assay employed Dr. Scholl's insole and leather discs as the optimal substrates representing materials used in shoes, and 30% isopropanol as the optimal vehicle to dissolve the agents to be tested in pre-treatment and post-treatment studies. Two types of disc biopsy assays were used to evaluate the ability of different synthetic and natural substances to disinfect shoe material: (a) Pre-treatment assay: where discs were pre-treated with antifungals first and then infected with T. mentagrophytes, and (b) Post-treatment assay: where discs were first infected with T. mentagrophytes, then treated with drugs. These assays reveal the ability of different agents to prevent and treat shoe fungal contamination, respectively. Pre-treatment assays: To evaluate the ability of different agents to prevent fungal contaminations of shoes, PDA plates were prepared on which 10^4 T. mentagrophytes cells were evenly spread. Next, discs from insoles and leather were treated as follows (with either agent or control vehicle): discs were pretreated with a single spray, spraying for 15 second or 30 second. Other discs were immersed in agent or vehicle for 30 min. Following this treatment, discs were air-dried by placing them in a Petri plate for 1 min. These dried discs were then placed (drug side down) on the seeded PDA plates. Plates were then incubated for 4 days at 30° C. Following incubation, fungal growth was recorded. […] Diameter of the clearance zone (CZD) was measured. The relative activity of different agents and control were assessed.

T. mentagrophytes [2] = test: Pre-treatment insole biopsy disc assay; type: cell-based, Trichophyton mentagrophytes
From the text: as §3

T. mentagrophytes [3] = test: Post-treatment insole biopsy disc assay; type: cell-based, Trichophyton mentagrophytes
From the text: (§4) Based on the above experiments, our disc biopsy assay employed Dr. Scholl's insole and leather discs as the optimal substrates representing materials used in shoes, and 30% isopropanol as the optimal vehicle to dissolve the agents to be tested in pre-treatment and post-treatment studies.
(§5) Two types of disc biopsy assays were used to evaluate the ability of different synthetic and natural substances to disinfect shoe material: (a) Pre-treatment assay: where discs were pre-treated with antifungals first and then infected with T. mentagrophytes, and (b) Post-treatment assay: where discs were first infected with T. mentagrophytes, then treated with drugs. These assays reveal the ability of different agents to prevent and treat shoe fungal contamination, respectively.
(§6) Post-treatment assays: To evaluate the ability of various agents to treat infected shoes, PDA plates were prepared on which […] T. mentagrophytes cells were evenly spread on their surface. Next, untreated biopsy discs were placed on these PDA plates and incubated for 4 days at 30° C. Incubating the biopsy discs in this manner allowed the fungi to invade the discs. Infected discs were picked and post-treated with different agents by spraying. Post-treated discs were allowed to air dry and were then placed on fresh, uninoculated PDA plates and incubated for 4 additional days at 30° C. Incubation of the discs under these conditions allows any fungi that are not killed by the sprayed agent to grow. In other words, agents that are effective in the treatment of shoe material will not show any fungal growth around the disc biopsy (FIG. 1C). In contrast, discs treated with ineffective agents will show fungal growth emanating from them (FIG. 1D). Diameter of the growth zone (GZD) was determined as a measure of the activity of the agent tested.

T. mentagrophytes [4] = test: Post-treatment leather biopsy disc assay; type: cell-based, Trichophyton mentagrophytes
From the text: as §4, §5, §6

T. mentagrophytes [5] = test: Scanning electron microscopy of treated discs; type: cell-based, Trichophyton mentagrophytes; conditions: for SEM: fungal growth on insole, post-contamination treatment / SEM: fungal growth on insole, pretreatment: insole biopsy disc; for SEM: fungal growth on leather, pretreatment: leather biopsy disc
Method: Scanning electron microscopy (SEM) was used to monitor the ability of agents to eradicate fungal growth on shoe insoles or leather biopsy discs. Pre- and post-treated discs were processed for SEM by the method of Chandra et al. One set of discs was used as a control in which no drug pre- or post-treatment was performed. In addition, one set of biopsy discs was used as blank where no fungal cells or drug were added. Following treatment, discs were fixed with 2% glutaraldehyde for 2 h, and then washed with sodium cacodylate buffer (three times for 10 minutes each). The discs were then treated with 1% osmium tetraoxide (for 1 h at 4° C.) followed by a series of washing with sodium cacodylate buffer, followed by a two times washing with distilled water. Next, the discs were treated with 1% tannic acid washed three times with distilled water, and followed by 1% uranyl acetate with two water washings. The samples were then dehydrated through a series of ethanol solutions (range from 25% (vol/vol) ethanol in distilled water to absolute ethanol). Prepared samples were then sputter coated with Au/Pd (60/40) and viewed with Amray 1000B scanning electron microscope.

T. rubrum = test: Pre-treatment insole assay, combination (FIG. 10); type: cell-based, Trichophyton rubrum; conditions: 0.01% synthetic agent, 3% tea tree oil, singly or combined
Method: Pre-treatment assays: To evaluate the ability of different agents to prevent fungal contaminations of shoes, PDA plates were prepared on which 10^4 T. mentagrophytes cells were evenly spread. Next, discs from insoles and leather were treated as follows (with either agent or control vehicle): discs were pretreated with a single spray, spraying for 15 second or 30 second. Other discs were immersed in agent or vehicle for 30 min. Following this treatment, discs were air-dried by placing them in a Petri plate for 1 min. These dried discs were then placed (drug side down) on the seeded PDA plates. Plates were then incubated for 4 days at 30° C. Following incubation, fungal growth was recorded. […] Diameter of the clearance zone (CZD) was measured. The relative activity of different agents and control were assessed. […] To determine whether using combination of synthetic compounds and essential oils will allow the use of low concentrations of synthetic drugs, we tested the ability of combination of 0.01% tolnaftate and 3% tea tree oil to prevent shoe contamination using the pre- and post-treatment insole bioassays described above.

[6] = Staphylococcus aureus, S. aureus strain 730, 80% inhibition, 16 h, read-out: MIC
[7] = Staphylococcus aureus, S. aureus strain 732, read-out: MIC
[8] = C. albicans strain 8280 (multi-resistant)
[9] = Candida albicans, 24 h, C. albicans strain 1740, 50% inhibition, 24 hours, read-out: MIC
[10] = Candida albicans, C. albicans strain 2108, read-out: MIC
[11] = Candida albicans, C. albicans strain 2153, read-out: MIC
[12] = Candida albicans, C. albicans strain 8280 (multi-resistant), read-out: MIC
[13] = Candida albicans, C. albicans strain 8283, read-out: MIC
[14] = Candida albicans, C. albicans strain 8364, read-out: MIC
[15] = Candida albicans, C. albicans, n = 6

Row | MIC (S. aureus; S. aureus strain 733) [µg/mL] | MIC (S. aureus; S. aureus strain 734) [µg/mL] | MIC (S. aureus; S. aureus strain 8470) [µg/mL] | MIC50 (S. aureus; Staphylococcus aureus) [µg/mL] | MIC90 (S. aureus; Staphylococcus aureus) [µg/mL] | MIC (S. aureus; [6]) [µg/mL] | MIC (S. aureus; [7]) [µg/mL] | MIC (C. albicans; [8]) [µg/mL] | MIC (C. albicans; [9]) [µg/mL] | MIC (C. albicans; [10]) [µg/mL] | MIC (C. albicans; [11]) [µg/mL] | MIC (C. albicans; [12]) [µg/mL] | MIC (C. albicans; [13]) [µg/mL] | MIC (C. albicans; [14]) [µg/mL] | MIC50 (C. albicans; [15]) [µg/mL] | MIC90 (C. albicans; [15]) [µg/mL] | MIC50 (All yeasts) [µg/mL] | MIC90 (All yeasts) [µg/mL] | SMILES | MIC Range (S. aureus; n = 6) [µg/mL] | Leather Pretreatment (CZD) (T. mentagrophytes [1]; 1% spray in 30% isopropanol) [mm] | also measured
1 | >64 | >64 | >64 | > 64 | > 64 | > 64 | > 64 | >64 | 1 (≈ 3.43 µM) | 0.5 (≈ 1.72 µM) | 0.5 (≈ 1.72 µM) | ≥ 64 | 0.5 (≈ 1.72 µM) | 2 (≈ 6.86 µM) | 0.5 (≈ 1.72 µM) | 2 (≈ 6.86 µM) | 0.25 (≈ 0.858 µM) | 2 (≈ 6.86 µM) | CN(C/C=C/C#CC(C)(C)C)Cc1cccc2ccccc12 [Terbinafine, terbinafine] | >64 | 85 | MIC (C. albicans; Candida albicans, C. albicans, 5 strains, read-out: MIC values): 0.5 to 2 µg/mL (≈ 1.72 to 6.86 µM); Insoles Pretreatment (CZD, clearance zone diameter) (T. mentagrophytes [2]; 1% spray in 30% isopropanol): 85 mm; Insoles Post-contamination Treatment (GZD, growth zone diameter) (T. mentagrophytes [3]; 1% spray in 30% isopropanol): 0 mm; Leather Post-contamination Treatment (GZD) (T. mentagrophytes [4]; 1% spray in 30% isopropanol): 0 mm; SEM: fungal growth on insole, post-contamination treatment (T. mentagrophytes [5]): complete clearance of fungal growth; SEM: fungal growth on insole, pretreatment (T. mentagrophytes [5]): completely eradicated fungal growth; SEM: fungal growth on leather, pretreatment (T. mentagrophytes [5]): completely eradicated fungal growth; effect of pretreatment of insoles on fungal growth (T. rubrum): did not result in any inhibition of fungal growth
2 | >64 | >64 | >64 | > 64 | > 64 | > 64 | > 64 | >64 | > 64 | 64 (≈ 208 µM) | > 64 | > 64 | > 64 | > 64 | > 64 | > 64 | 16 (≈ 52 µM) | > 64 | Cc1cccc(N(C)C(=S)Oc2ccc3ccccc3c2)c1 [Tolnaftate, tolnaftate] |  | 18 | MIC Range (S. aureus; n = 6 printed, listed as TOLNAFTATE): >64 µg/mL; MIC Range (S. aureus; n = 6 printed, listed as tolnaftate): > 64 µg/mL; Leather Pretreatment (CZD) (T. mentagrophytes [1]; 1% spray in 30% isopropanol, listed as tolnaftate): 16 mm; Leather Pretreatment (CZD) (T. mentagrophytes [1]; 2% spray in 30% isopropanol): 6 mm; MIC Range (C. albicans; C. albicans, n = 6): > 64 µg/mL; Insoles Pretreatment (CZD, clearance zone diameter) (T. mentagrophytes [2]; 1% spray in 30% isopropanol): 25 mm; Insoles Pretreatment (CZD, clearance zone diameter) (T. mentagrophytes [2]; 2% spray in 30% isopropanol): 10 mm; Insoles Pretreatment (CZD, clearance zone diameter) (T. mentagrophytes [2]; 2% spray in 30% isopropanol, listed as tolnaftate): 11 mm; preventive activity against dermatophytes infecting shoes (T. mentagrophytes [2]; acetone as vehicle): potent preventive activity; Insoles Post-contamination Treatment (GZD, growth zone diameter) (T. mentagrophytes [3]; 1% spray in 30% isopropanol): 8 mm; Insoles Post-contamination Treatment (GZD, growth zone diameter) (T. mentagrophytes [3]; 2% spray in 30% isopropanol): 10 mm; fungal regrowth from established contamination (T. mentagrophytes [3]; 4% (w/v) in acetone, insole disc): no fungal regrowth was observed; Leather Post-contamination Treatment (GZD) (T. mentagrophytes [4]; 1% spray in 30% isopropanol): 11 mm; Leather Post-contamination Treatment (GZD) (T. mentagrophytes [4]; 2% spray in 30% isopropanol): 11 mm; SEM: fungal growth on insole, post-contamination treatment (T. mentagrophytes [5]): minimally effective; SEM: fungal growth on insole, pretreatment (T. mentagrophytes [5]): completely eradicated fungal growth; SEM: fungal growth on leather, pretreatment (T. mentagrophytes [5]): did not completely eradicate dermatophyte growth

Row | SMILES | MIC (S. aureus; S. aureus strain 733) [µg/mL] | MIC (S. aureus; S. aureus strain 734) [µg/mL] | MIC (S. aureus; S. aureus strain 8470) [µg/mL] | MIC50 (S. aureus; Staphylococcus aureus) [µg/mL] | MIC90 (S. aureus; Staphylococcus aureus) [µg/mL] | MIC (S. aureus; [6]) [µg/mL] | MIC (S. aureus; [7]) [µg/mL] | MIC (C. albicans; [8]) [µg/mL] | MIC (C. albicans; [9]) [µg/mL] | MIC (C. albicans; [10]) [µg/mL] | MIC (C. albicans; [11]) [µg/mL] | MIC (C. albicans; [12]) [µg/mL] | MIC (C. albicans; [13]) [µg/mL] | MIC (C. albicans; [14]) [µg/mL] | MIC50 (C. albicans; [15]) [µg/mL] | MIC90 (C. albicans; [15]) [µg/mL] | MIC50 (All yeasts) [µg/mL] | MIC90 (All yeasts) [µg/mL] | MIC Range (S. aureus; n = 6) [µg/mL] | Leather Pretreatment (CZD) (T. mentagrophytes [1]; 1% spray in 30% isopropanol) [mm] | also measured
3 | Clc1ccc(COC(Cn2ccnc2)c2ccc(Cl)cc2Cl)c(Cl)c1 (stereo not shown) [Miconazole, miconazole] | 2 (≈ 4.81 µM) | 2 (≈ 4.81 µM) | 2 (≈ 4.81 µM) | 2 (≈ 4.81 µM) | 2 (≈ 4.81 µM) | 2 (≈ 4.81 µM) | 2 (≈ 4.81 µM) | >16 | 1 (≈ 2.4 µM) | 2 (≈ 4.81 µM) | 1 (≈ 2.4 µM) | > 16 | 16 (≈ 38.4 µM) | 2 (≈ 4.81 µM) | 2 (≈ 4.81 µM) | 16 (≈ 38.4 µM) | 4 (≈ 9.61 µM) | > 16 | 2 (≈ 4.81 µM) |  | MIC (C. albicans; Candida albicans, C. albicans, another isolate, read-out: MIC): 16 µg/mL (≈ 38.4 µM); MIC (C. albicans; Candida albicans, C. albicans, four isolates, read-out: MIC): 1 to 2 µg/mL (≈ 2.4 to 4.81 µM)
